Source: patent publication US10364256B2 (GlaxoSmithKline Intellectual Property Development Limited, priority 2015, dated 2019)

Legend:
[1] = system: NQO1 specific enzyme activity in BEAS-2B cells (marker for NRF2 activation); assay: BEAS-2B NQO1 MTT Assay; format: cell-based; conditions: Homo sapiens, compound incubated 48 hours, read-out: EC50 (NQO1 specific enzyme activity induction)
In short: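 NQO1 specific activity induction is derived from the rate of MTT reduction (ΔOD/min, 570 nm, 30 min kinetic read) in crude lysates of BEAS-2B cells exposed to compound for 48 h. A 3-parameter fit gives EC50, reported as pEC50; part of each lysate goes to Cell Titer Glo.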

[2] = target: T1, Keap1 Kelch domain (321-609) / TAMRA-labeled 16mer NRF2 peptide (ETGE motif) (Homo sapiens, UniProt Q14145); assay: NRF2-Keap1 FP Assay (Keap1 Kelch fluorescence polarization); format: binding; conditions: 20 nM Keap1 (321-609), 8 nM Tamra labeled peptide
T1 construct: the Kelch domain (321-609) of Keap1 is used
In short: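 Compound dilutions (3-fold) were incubated 1 hr at room temperature with 20 nM Keap1 Kelch (321-609) and 8 nM TAMRA-labeled ETGE 16mer peptide. Buffer was 50 mM Tris pH 8.0, 100 mM NaCl, 5 mM MgCl2, 1 mM DTT, 2 mM CHAPS, 0.005% BSA. Fluorescence polarization (mP) was normalized to controls and fitted with a four-parameter equation to give pIC50.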

[3] = target: T2, full length Keap1 protein / full length NRF2 protein (Homo sapiens, UniProt Q14145); assay: NRF2-Keap1 TR-FRET Low Protein Assay; format: binding; conditions: 1.25 nM Keap1 FlagHis and 2.5 nM biotin-NRF2 added
T2 construct: full length NRF2 protein and full length Keap1 protein (Keap1 exists a dimer) are used; His
In short: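 Flag-tagged full-length Keap1 was preincubated with compound (3-fold series) for 2.25 h at 37 °C in Tris pH 8.0/MgCl2/NaCl/BSA/DTT/CHAPS. Biotin-Avi-NRF2 (added at 2.5 nM) was then bound for 1.25 h at 4 °C. Eu-streptavidin/anti-Flag-APC TR-FRET (665/615 nm) was read after 1 h at RT, and pIC50 came from a four-parameter fit.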

T1 sequence (Q14145 321-609): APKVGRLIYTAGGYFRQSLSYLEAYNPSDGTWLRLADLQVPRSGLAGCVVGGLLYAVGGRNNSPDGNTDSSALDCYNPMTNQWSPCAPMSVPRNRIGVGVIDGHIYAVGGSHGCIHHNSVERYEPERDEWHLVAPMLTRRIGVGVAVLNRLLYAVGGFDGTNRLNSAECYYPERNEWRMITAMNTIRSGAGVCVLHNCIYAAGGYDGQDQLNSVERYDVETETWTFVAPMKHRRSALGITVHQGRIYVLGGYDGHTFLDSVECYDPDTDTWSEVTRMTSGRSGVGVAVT
T2 sequence (Q14145 whole entry): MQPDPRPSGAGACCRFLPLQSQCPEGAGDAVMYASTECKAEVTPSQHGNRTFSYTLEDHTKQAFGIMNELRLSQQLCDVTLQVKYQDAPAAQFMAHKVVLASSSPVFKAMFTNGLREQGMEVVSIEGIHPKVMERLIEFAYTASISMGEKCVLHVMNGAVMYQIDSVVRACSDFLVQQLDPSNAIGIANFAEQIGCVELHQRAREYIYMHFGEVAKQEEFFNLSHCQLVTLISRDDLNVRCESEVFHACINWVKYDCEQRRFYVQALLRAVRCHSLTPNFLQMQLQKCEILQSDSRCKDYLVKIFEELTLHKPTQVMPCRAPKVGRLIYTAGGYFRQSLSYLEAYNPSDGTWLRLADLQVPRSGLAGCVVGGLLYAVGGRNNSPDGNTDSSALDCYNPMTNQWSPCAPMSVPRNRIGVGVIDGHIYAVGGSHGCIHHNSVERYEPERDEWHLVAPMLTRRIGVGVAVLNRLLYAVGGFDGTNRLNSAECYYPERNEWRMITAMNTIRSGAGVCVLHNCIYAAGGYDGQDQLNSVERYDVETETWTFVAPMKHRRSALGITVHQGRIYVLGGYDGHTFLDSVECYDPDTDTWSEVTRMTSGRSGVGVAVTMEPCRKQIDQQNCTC

| Compound | EC50 [1] | IC50 [2] | IC50 [3] |
| --- | --- | --- | --- |
| C[C@H](Oc1cccc(-c2cccc(-n3ncc(C(=O)O)c3[C@@H]3C[C@H]3c3c[nH]nn3)c2)c1)C1CCCCC1 [Example 99, 5-((1R,2R)-2-(1H-1,2,3-Triazol-4-yl)cyclopropyl)-1-(3′-((S)-1-cyclohexylethoxy)-[1,1′-biphenyl]-3-yl)-1H-pyrazole-4-carboxylic Acid] | 1 to 10 nM | 10 to 100 nM | < 10 nM |
| C[C@H](Oc1cccc(-c2cccc(-n3ncc(C(=O)O)c3[C@H]3C[C@@H]3c3c[nH]nn3)c2)c1)C1CCCCC1 [Example 100, 5-((1S,2S)-2-(1H-1,2,3-Triazol-4-yl)cyclopropyl)-1-(3′-((S)-1-cyclohexylethoxy)-[1,1′-biphenyl]-3-yl)-1H-pyrazole-4-carboxylic Acid] | 100 to 1000 nM | 1000 to 10000 nM | 100 to 1000 nM |
| C[C@H](Oc1cccc(-c2cccc(-n3ncc(C(=O)O)c3[C@@H]3C[C@H]3c3cn(C)nn3)c2)c1F)C1CCCCC1 [Example 104, 1-(3′-((S)-1-cyclohexylethoxy)-2′-fluoro-[1,1′-biphenyl]-3-yl)-5-((1R,2R)-2-(1-methyl-1H-1,2,3-triazol-4-yl)cyclopropyl)-1H-pyrazole-4-carboxylic Acid] | 10 to 100 nM | 10 to 100 nM | 10 to 100 nM |
| CCOC(=O)c1cnn(-c2cccc(-c3cccc(O[C@@H](C)C4CCCCC4)c3)c2)c1[C@@H]1C[C@H]1c1cn(C)nn1 [Example 105, Ethyl 1-(3′-((S)-1-cyclohexylethoxy)-[1,1′-biphenyl]-3-yl)-5-((1R,2R)-2-(1-methyl-1H-1,2,3-triazol-4-yl)cyclopropyl)-1H-pyrazole-4-carboxylate] | < 1 nM | > 10000 nM | 1000 to 10000 nM |
| C[C@H](Oc1cccc(-c2cccc(-n3ncc(C(=O)OC4CCOC4=O)c3[C@@H]3C[C@H]3c3cn(C)nn3)c2)c1)C1CCCCC1 (stereo partly drawn) [Example 106, 2-Oxotetrahydrofuran-3-yl 1-(3′-((S)-1-cyclohexylethoxy)-[1,1′-biphenyl]-3-yl)-5-((1R,2R)-2-(1-methyl-1H-1,2,3-triazol-4-yl)cyclopropyl)-1H-pyrazole-4-carboxylate] | 100 to 1000 nM | > 10000 nM | 1000 to 10000 nM |
| C[C@H](Oc1cccc(-c2cccc(-n3ncc(C(=O)OCCO)c3[C@@H]3C[C@H]3c3cn(C)nn3)c2)c1)C1CCCCC1 [Example 107, 2-Hydroxyethyl 1-(3′-((S)-1-cyclohexylethoxy)-[1,1′-biphenyl]-3-yl)-5-((1R,2R)-2-(1-methyl-1H-1,2,3-triazol-4-yl)cyclopropyl)-1H-pyrazole-4-carboxylate] | 100 to 1000 nM | > 10000 nM | 1000 to 10000 nM |
| C[C@H](Oc1cccc(-c2cccc(-n3ncc(C(=O)OCCN4CCOCC4)c3[C@@H]3C[C@H]3c3cn(C)nn3)c2)c1)C1CCCCC1 [Example 108, 2-Morpholinoethyl 1-(3′-((S)-1-cyclohexylethoxy)-[1,1′-biphenyl]-3-yl)-5-((1R,2R)-2-(1-methyl-1H-1,2,3-triazol-4-yl)cyclopropyl)-1H-pyrazole-4-carboxylate] | 10 to 100 nM | > 10000 nM | 1000 to 10000 nM |
| C[C@H](Oc1cccc(-c2cccc(-n3ncc(C(=O)OCOC(=O)C(C)(C)C)c3[C@@H]3C[C@H]3c3cn(C)nn3)c2)c1)C1CCCCC1 [Example 109, (Pivaloyloxy)methyl 1-(3′-((S)-1-cyclohexylethoxy)-[1,1′-biphenyl]-3-yl)-5-((1R,2R)-2-(1-methyl-1H-1,2,3-triazol-4-yl)cyclopropyl)-1H-pyrazole-4-carboxylate] | 1 to 10 nM | > 10000 nM | 100 to 1000 nM |
| CC(=O)OCOC(=O)c1cnn(-c2cccc(-c3cccc(O[C@@H](C)C4CCCCC4)c3)c2)c1[C@@H]1C[C@H]1c1cn(C)nn1 [Example 110, Acetoxymethyl 1-(3′-((S)-1-cyclohexylethoxy)-[1,1′-biphenyl]-3-yl)-5-((1R,2R)-2-(1-methyl-1H-1,2,3-triazol-4-yl)cyclopropyl)-1H-pyrazole-4-carboxylate] | < 1 nM | 100 to 1000 nM | 10 to 100 nM |
| C[C@H](Oc1cccc(-c2cccc(-n3ncc(C(=O)OCOC(=O)c4ccccc4)c3[C@@H]3C[C@H]3c3cn(C)nn3)c2)c1)C1CCCCC1 [Example 111, (Benzoyloxy)methyl 1-(3′-((S)-1-cyclohexylethoxy)-[1,1′-biphenyl]-3-yl)-5-((1R,2R)-2-(1-methyl-1H-1,2,3-triazol-4-yl)cyclopropyl)-1H-pyrazole-4-carboxylate] | 1 to 10 nM | > 10000 nM | 100 to 1000 nM |
| C[C@H](Oc1cccc(-c2cccc(-n3ncc(C(=O)OCOC(=O)OC(C)(C)C)c3[C@@H]3C[C@H]3c3cn(C)nn3)c2)c1)C1CCCCC1 [Example 112, ((tert-Butoxycarbonyl)oxy)methyl 1-(3′-((S)-1-cyclohexylethoxy)-[1,1′-biphenyl]-3-yl)-5-((1R,2R)-2-(1-methyl-1H-1,2,3-triazol-4-yl)cyclopropyl)-1H-pyrazole-4-carboxylate] | 1 to 10 nM | > 10000 nM | 100 to 1000 nM |
| Cc1cc([C@@H]2C[C@H]2c2c(C(=O)O)cnn2-c2cccc(-c3cccc(O[C@@H](C)C4CCCCC4)c3)c2)on1 [Example 115, 1-(3′-((S)-1-cyclohexylethoxy)-[1,1′-biphenyl]-3-yl)-5-((1R,2R)-2-(3-methylisoxazol-5-yl)cyclopropyl)-1H-pyrazole-4-carboxylic Acid] | 100 to 1000 nM | 100 to 1000 nM | 100 to 1000 nM |
| CC[C@H]1COc2ccccc2CN1Cc1cccc(-c2cccc(-n3ncc(C(=O)O)c3[C@@H]3C[C@H]3c3cn(C)nn3)c2)c1 [Example 119, 1-(3′-(((S)-3-Ethyl-2,3-dihydrobenzo[f][1,4]oxazepin-4(5H)-yl)methyl)-[1,1′-biphenyl]-3-yl)-5-((1R,2R)-2-(1-methyl-1H-1,2,3-triazol-4-yl)cyclopropyl)-1H-pyrazole-4-carboxylic Acid] | 100 to 1000 nM | 10 to 100 nM | < 10 nM |
| CC[C@@H]1COc2ccccc2CN1Cc1cccc(-c2cccc(-n3ncc(C(=O)O)c3[C@@H]3C[C@H]3c3cn(C)nn3)c2)c1 [Example 120, 1-(3′-(((R)-3-Ethyl-2,3-dihydrobenzo[f][1,4]oxazepin-4(5H)-yl)methyl)-[1,1′-biphenyl]-3-yl)-5-((1R,2R)-2-(1-methyl-1H-1,2,3-triazol-4-yl)cyclopropyl)-1H-pyrazole-4-carboxylic Acid] | 10 to 100 nM | 10 to 100 nM | < 10 nM |
| C[C@@H]1Cc2ccccc2S(=O)(=O)N(Cc2cccc(-c3cccc(-n4ncc(C(=O)O)c4[C@@H]4C[C@H]4c4cn(C)nn4)c3)c2)C1 [Example 130, 1-(3′-(((R)-4-Methyl-1,1-dioxido-4,5-dihydrobenzo[f][1,2]thiazepin-2(3H)-yl)methyl)-[1,1′-biphenyl]-3-yl)-5-((1R,2R)-2-(1-methyl-1H-1,2,3-triazol-4-yl)cyclopropyl)-1H-pyrazole-4-carboxylic Acid] | 100 to 1000 nM | 10 to 100 nM | 10 to 100 nM |
